Results on ten compounds are retold here after patent publication US12485079B2, “Compositions and methods relating to pigmentation” (Alastin Skincare, Inc., priority 2020, dated 2025).

For data set [1], the system named is EDN1 and other melanogenic genes in HUVECs. The data set can be described thus: Gene expression study (RNA sequencing) in HUVECs. Type of data set: cell-based, human. The note with it: 24 hours of compound exposure. On the procedure:
(§1) Four cell types associated with pigmentation pathways-melanocytes, keratinocytes, fibroblasts and endothelial (HUVEC) cells-were analyzed for gene expression.
(§2) To simulate the UV stimulatory pigmentation pathway process, melanocytes were pre-treated with PGE2, a normal direct consequence of UV light exposure usually emanating from exposed keratinocytes. After the 48 hour attachment culture, these melanocytes were induced with 10 uM PGE2 in melanocyte media for 24 hrs. The four primary human adult dermal cell lines were cultured and plated in well plates in triplicate and then treated with 11 different compound treatments (plus DMSO control). After 48 hours of attachment culture, the remaining fibroblasts, HUVECs and keratinocytes were treated with the test compounds listed in Table 6.
(§3) After 24 hours of compound exposure, RNA lysate preparation was carried out and samples were shipped to MedGenome for RNA extraction, library construction and sequencing to 25M paired end 100 bp reads per sample. Library prep and sequencing was completed at MedGenome.

In data set [2] the test system is melanogenic genes. The data set can be described thus: Cell line melanogenic gene activity testing, overall conclusion. Particulars: conclusion over melanocytes, keratinocytes, HUVECs. Format: cell-based, human. On the procedure:
as §1, §2, §3

Data set [3] deals with melanocytes (melanin production). In words: In vitro melanocyte comparative analysis via absorbance readings (Example 4). Format: cell-based. Particulars: for regulation of melanogenesis (decrease of absorption = decreased melanin formation): Table 8; for Absorbance 405 nm / Absorbance 490 nm / Absorbance 492 nm: melanocyte lysates. The protocol:
Melanocytes were cultured in 6-well plates containing growth media. Once confluent, 2 concentrations of each of the 10 compounds were added to the cells in triplicate wells for 4 days. There were a total of eleven 6-well plates, one for each compound treatment and one for the vehicle control. Absorbance readings were taken on the lysates prepared for each well of the 6-well plates, normalizing for cells counts. […] Additional validation was carried out using MSH addition to media to confirm increased stimulation of melanin production. The following compounds used in this study are seen in Table 7.

Data set [4] concerns SCF, LIF, POMC, endothelin genes, PGE2, NGF in keratinocytes. The data set can be described thus: Gene expression study (RNA sequencing) in keratinocytes. Type of data set: cell-based, human. The note with it: 24 hours of compound exposure. On the procedure: as §1, §2, §3
For data set [5], the system named is UV-B-induced hyperpigmentation. The note with it: topical application for 4 weeks, mice skin; cited from earlier work.
Data set [6] has as its system MITF. The data set can be described thus: In vitro MITF gene expression test in cultured fibroblasts. Type of data set: cell-based. Particulars: 48 hours. On the procedure:
Microphthalmia-associated transcription factor (MITF) is a master regulator of pigmentation and melanin transfer and a potential new target for hyperpigmentation and melanoma. In vitro MITF gene expression tests were carried out to ascertain differences between individual peptides (tripeptide-1 and hexapeptide-12) and their combination in terms of MITF downregulation.
Specifically, the tests were conducted by culturing fibroblasts and then adding tripeptide-1, hexapeptide-12, or a combination of both. After 48 hours, MITF gene expression was analyzed.

Data set [7] deals with hTERT-immortalized dermal melanocytes. The note with it: human.
Method: (§4) Melanocytes were initially plated in 6-well tissue culture plate (1.5×10^3 cells per well) in melanocyte growth media (Dermal Cell Basal Medium (ATCC® PCS-200-030 supplemented with Melanocyte Growth Kit (ATCC® PCS-200-041). Melanocytes were then expanded into 10 cm tissue culture plates at concentrations recommended by ATCC. The cells appear to fully adhere to the plate/dish while culturing with a webbed morphology. Cells were cultured at 37° C. 5% CO2 incubator.
(§5) Once the melanocytes were 100% confluent in 6-well plates, the melanocyte growth media was removed and the melanocytes were treated with media containing the above compounds; duplicate wells for each compound/concentration listed above. The duplicate vehicle control wells were fed melanocyte growth media only or melanocyte growth media with DMSO (10 uL per 10 mL melanocyte growth media).
(§6) The cells were fed the appropriate media for the next 5 days. Each day, the cells were inspected for morphology.
Data set [8] has the same test system. In words: Melanocyte assay, daily inspection of morphology and survival (Example 6). The note with it: both concentrations of the compound.
Method: as §4, §5, §6
The subject of data set [9] is carrageenan-induced inflammation. The note with it: rats; cited from earlier work.
For data set [10], the system named is pigmented reconstructed epidermis. Particulars: cited from earlier work.
For data set [11], the system named is melanogenic genes in melanocytes. In words: Gene expression study (RNA sequencing) in PGE2-induced melanocytes. Format: cell-based, human. The protocol:
as §1, §2, §3

Data set [12] relates to PMEL, tyrosinase genes, MC1/4R, EDNRB, MITF, ERK1/2, JNK, AKT1. In words: Gene expression studies of Example 5. Format: cell-based. The text has this: The methods similar to Examples 3-4 were used to measure expression of PMEL, tyrosinase genes, MC1/4R, EDNRB, MITF, ERK1/2, JNK, and ANKT1.
FIGS. 10A-10D illustrates the expression of PMEL (FIG. 10A), Tyrosinase genes (FIG. 10B), MC1/4R (FIG. 10C), and EDNRB (FIG. 10D) after treatment of endothelial cells with lactoferrin (Lacto), peptide derived from lactoferrin (TCV), hexapeptide-12 (Hex12), tripeptide-1 and hexapeptide-12 (TriHex), hexapeptide-11 (Hex11), tranexamic acid (Tran acid) octapeptide (Octa), phosphatidylserine (phos), Cannabidiol (CBD), and all (total).
MITF is regulated by phosphorylation. Specifically, the MAPK and Akt pathways are known to phosphorylate MITF at certain sites. FIGS. 12A-12C illustrate the expression of ERK1/2 (MAPK3/MAPK1) (FIG. 12A), JNK (FIG. 12B), AKT1 (FIG. 12C) after treatment of endothelial cells with lactoferrin (Lacto), peptide derived from lactoferrin (TCV), hexapeptide-12 (Hex12), tripeptide-1 and hexapeptide-12 (TriHex), hexapeptide-11 (Hex11), octapeptide (Octa), phosphatidylserine (phos), Cannabidiol (CBD), and all (total).

Regarding Phosphatidylserine, the “activity on EDN1 and other melanogenic genes (FIG. 9)” value in data set [1] is “potent activity”. Further, the “effects on melanogenesis activity” value in data set [2] was “significant effects on melanogenesis activity”. Moreover, the “regulation of melanogenesis (decrease of absorption = decreased melanin formation)” value in data set [3] (melanocytes) is reported as “Regulation of melanogenesis was observed”.

With Hexapeptide-11 [HEX-11], in data set [4], the “melanogenesis activity (FIGS. 6A-6F, FIG. 7)” value was “active ingredient in melanogenesis activity”. The “effects on melanogenesis activity” value in data set [2] was “significant effects on melanogenesis activity”. The “regulation of melanogenesis (decrease of absorption = decreased melanin formation)” value in [3] (melanocytes) was “Regulation of melanogenesis was observed”.

For the compound `Oc1ccc2c(c1)OCO2` [Sesamol], the “regulation of melanogenesis (decrease of absorption = decreased melanin formation)” value in [3] (melanocytes) is listed as “Regulation of melanogenesis was also observed”.

On to `O=C(O)c1cc(O)c(O)c(O)c1` [GA, Gallic acid], for which, in data set [5], the UV-B-induced hyperpigmentation entry is on record as “significantly rescued”.

Turning to Tripeptide-1, the MITF gene expression in data set [6] (120 xppm Tripeptide, positive = upregulation) is listed as 1.72; in data set [6] (120 xppm Tripeptide, positive = upregulation, listed as tripeptide-1), “+1.72”.

Consider `NC[C@H]1CC[C@H](C(=O)O)CC1` [Tranexamic Acid, Tranexamic acid, reference compound], for which the “regulation of melanogenesis (decrease of absorption = decreased melanin formation)” value in [3] (melanocytes) is given as “Regulation of melanogenesis was also observed”.

Turning to `C/C=C1/[C@H](O[C@@H]2O[C@H](CO)[C@@H](O)[C@H](O)[C@H]2O)OC=C(C(=O)OC)[C@H]1CC(=O)OCCc1ccc(O)c(O)c1` [Oleuropein], the “time post-initial dosing at which all or nearly all melanocytes were dead” value in data set [7] came out at 72 h. Further, the “time post-initial dosing at which melanocytes started dying” value in data set [8] came out at 24 h.

As to `C=C(C)[C@@H]1CCC(C)=C[C@H]1c1c(O)cc(CCCCC)cc1O` [CBD, Cannabidiol], the “PGE2, nitric oxide (NO), and malondialdehyde production, together with COX activity” value in [9] is on record as “reduced”.

Regarding `COc1ccc([C@@H]2CC(=O)c3c(O)cc(O[C@@H]4O[C@H](CO[C@@H]5O[C@@H](C)[C@H](O)[C@@H](O)[C@H]5O)[C@@H](O)[C@H](O)[C@H]4O)cc3O2)cc1O` [Hesperidin], in [10], the skin lightening effect entry is reported as “showed skin lightening effect”.

As to Hexapeptide-12 [HEX-12], the MITF gene expression in data set [6] (80 ppm Hexapeptide, negative = downregulation) is reported as −1.16. The “melanogenic activity (FIGS. 3A-3D)” value in [11] (melanocytes pre-treated with 10 uM PGE2, 24 hours of compound exposure) is “particularly dominant in melanogenic activity”. Also, the “expression of melanogenic genes (FIG. 4, FIG. 5)” value in data set [11] (melanocytes, 24 hours of compound exposure) was “downregulation of melanogenic genes”. The “effects on melanogenesis activity” value in data set [2] is on record as “significant effects on melanogenesis activity”. Further, in data set [3] (2.9 ug/mL), the “Absorbance 405 nm” value worked out at 1.32, the “Absorbance 490 nm” value turned out to be 0.94 and the “Absorbance 492 nm” value is 0.64. For the same compound, in data set [3] (4.9 ug/mL), the “Absorbance 405 nm” value was 0.96, the “Absorbance 490 nm” value stood at 0.64 and the “Absorbance 492 nm” value is 0.46. In [3] (melanocytes), the “stimulation of melanin production (model validation)” value is reported as “decreased stimulation” and the “regulation of melanogenesis (decrease of absorption = decreased melanin formation)” value is on record as “Regulation of melanogenesis was observed”. Further, the “melanogenic activity (expression of PMEL, Tyrosinase genes, MC1/4R, EDNRB; FIGS. 10A-10D)” value in data set [12] (after treatment of endothelial cells) was “robust melanogenic activity”. Moreover, the “effects on melanogenic activity (kinase expression linked to decreased MITF expression)” value in data set [12] (conclusion of Example 5) is recorded as “significant effects”.
